“And” between values parts separate entries of the source, which are not always exact repeats. Equal values may be shown once. Marks after values point to notes of the source that are not given here.
Assays:
[1] = test system: RgNanH; assay: Specificity of RgNanH against sialylated oligosaccharides (HPAEC-PAD); format: biochemical, Ruminococcus gnavus ATCC 29149; design: key to Activity, RgNanH: +: Activity was defined as disappearance of the substrate peak and appearance of a lower molecular weight peak which could correspond to the desialylated substrate; settings: for Activity, RgNanH: 1 mM substrate, 1 nM enzyme, 37° C., pH 6.5, overnight
[2] = test system: AkmNan0625 and AkmNan1835; assay: Specificity of AkmNan0625 and AkmNan1835 against sialylated oligosaccharides (HPAEC-PAD); format: biochemical, Akkermansia muciniphila; design: key to Activity, AkmNan0625 and AkmNan1835: +: Activity was defined as disappearance of the substrate peak and appearance of a lower molecular weight peak which could correspond to the desialylated substrate; settings: for Activity, AkmNan0625 and AkmNan1835: 1 mM substrate, 1 nM enzyme, 37° C., pH 6.5, overnight
Source text: All chemicals were obtained from Sigma (St. Louis, US) unless otherwise stated. The Akkermansia muciniphila sialidases, termed here AkmNan0625 and AkmNan1835, were obtained by His-Tag overexpression of their genes (Amuc_0625 and Amuc_1835, respectively (van Passel, M. W. et al. The genome of Akkermansia muciniphila, a dedicated intestinal mucin degrader, and its use in exploring intestinal metagenomes. Plos One 6, e16876 (2011)) in E. coli BL21(DE3) and subsequent purification to homogeneity by immobilised metal affinity chromatography (IMAC) as described below. The sialylated oligosaccharides and OC were obtained from Carbosynth (Berks, UK).

[3] = test system: RgNanH; assay: Kinetic analysis of RgNanH with sialylated substrates; settings: 37° C., pH 6.5; for Ki: read-out: Ki (substrate inhibition)
Experimental: For 4MU-Neu5Ac and 3′SL, the rate of hydrolysis without enzyme was not significant so raw data were used. However, for pNP-Neu5Ac the rate of hydrolysis without enzyme was significant so the rate with enzyme was corrected by the subtraction of the rate without enzyme at each concentration of substrate.
Kinetic data were obtained from at least duplicate (usually triplicate) experiments, and the kinetic parameters were calculated by fitting the initial raw data to the Michaelis-Menten equation using a non-linear regression analysis program (Prism 6, GraphPad, San Diego, USA), error bars (standard error of the mean) are shown.

[4] = molecular target: T1, Ruminococcus gnavus ATCC 29149 sialidase RgNanH (intramolecular trans-sialidase, IT-sialidase), wild type, full length excluding signal sequence residues 1-25, (Mediterraneibacter gnavus, UniProt A7B557); settings: 37° C., pH 6.5
T1 sequence (A7B557 26-723): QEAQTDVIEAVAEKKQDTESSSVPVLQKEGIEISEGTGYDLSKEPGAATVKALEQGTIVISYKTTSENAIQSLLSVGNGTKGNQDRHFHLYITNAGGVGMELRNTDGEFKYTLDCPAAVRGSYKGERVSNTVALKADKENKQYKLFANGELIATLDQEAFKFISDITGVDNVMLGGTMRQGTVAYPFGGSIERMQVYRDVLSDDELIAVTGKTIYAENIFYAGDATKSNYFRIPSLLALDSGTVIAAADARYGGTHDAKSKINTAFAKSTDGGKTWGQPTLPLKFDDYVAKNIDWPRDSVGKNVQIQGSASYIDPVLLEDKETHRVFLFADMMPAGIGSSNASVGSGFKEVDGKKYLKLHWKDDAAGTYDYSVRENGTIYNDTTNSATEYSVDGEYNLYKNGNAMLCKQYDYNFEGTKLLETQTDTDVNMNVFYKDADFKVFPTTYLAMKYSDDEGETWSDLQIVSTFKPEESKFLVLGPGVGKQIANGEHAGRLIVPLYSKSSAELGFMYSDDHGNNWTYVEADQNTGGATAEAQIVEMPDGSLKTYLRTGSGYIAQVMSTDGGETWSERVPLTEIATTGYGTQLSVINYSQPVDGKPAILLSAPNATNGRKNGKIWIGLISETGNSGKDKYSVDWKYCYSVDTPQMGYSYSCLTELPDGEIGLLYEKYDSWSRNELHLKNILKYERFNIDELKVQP
Experimental: (§1) Substrate (a) 4MU-Neu5Ac or (b) PNP-Neu5Ac was incubated with RgNanH (0.22 mM and 0.43 nM respectively) at 37° C., pH 6.5 and the release of product measured using a plate-reader. (c) Inhibition of RgNanH (1.00 nM) incubated with 4MU-Neu5Ac (0.51 mM) by zanamivir (●), Neu5Ac2en (▪), Siastatin B (▴) and oseltamivir carboxylate (♦), the rates are normalised to a % of the uninhibited rate. [I] is the inhibitor concentration. (d) 3′SL was incubated with RgNanH (2.25 nM) and the release of product measured by HPAEC-PAD. Experiments were done at least in duplicate (usually triplicate) and the error bars show the standard error of the mean.

[5] = molecular target: T2, RgNanH (Mediterraneibacter gnavus, UniProt A7B557); assay: Inhibition of RgNanH activity against 4MU-Neu5Ac by neuraminidase inhibitors; settings: for Inhibition of RgNanH (in words): 4MU-Neu5Ac 0.51 mM, 1 nM enzyme, Neu5Ac 0-0.3 mM, Lac 0-1.5 mM
T2 sequence (A7B557 26-723): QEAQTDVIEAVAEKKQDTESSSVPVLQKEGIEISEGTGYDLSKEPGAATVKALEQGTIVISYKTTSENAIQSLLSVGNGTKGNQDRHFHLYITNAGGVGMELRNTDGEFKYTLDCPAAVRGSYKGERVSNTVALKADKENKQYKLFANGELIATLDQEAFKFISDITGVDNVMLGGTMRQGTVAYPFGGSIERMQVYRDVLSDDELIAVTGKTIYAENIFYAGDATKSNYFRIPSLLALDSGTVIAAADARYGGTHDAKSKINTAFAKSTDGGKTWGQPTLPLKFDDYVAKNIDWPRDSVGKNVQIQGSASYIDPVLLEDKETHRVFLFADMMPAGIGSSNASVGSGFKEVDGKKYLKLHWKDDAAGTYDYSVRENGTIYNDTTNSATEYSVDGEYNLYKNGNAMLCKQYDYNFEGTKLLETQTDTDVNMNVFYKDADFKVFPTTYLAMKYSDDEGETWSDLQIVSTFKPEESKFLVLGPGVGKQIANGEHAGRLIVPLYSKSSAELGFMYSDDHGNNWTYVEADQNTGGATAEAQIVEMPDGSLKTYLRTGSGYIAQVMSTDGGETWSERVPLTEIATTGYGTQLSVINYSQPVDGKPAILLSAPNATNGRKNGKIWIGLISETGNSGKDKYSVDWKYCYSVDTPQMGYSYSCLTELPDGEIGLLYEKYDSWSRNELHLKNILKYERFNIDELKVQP

[6] = molecular target: T2, RgNanH; settings: 1 mg/ml glycoprotein, 37° C., pH 6.5, overnight
Experimental: Extracts (400 μL) were mixed with 200 μL of D2O and 20 μL of a solution of D2O containing 1 mM of TSP (sodium 3-(trimethylsilyl)-propionate-d4). Samples (500 μL) were transferred into a 5-mm NMR tube for spectral acquisition. The ^1H NMR spectra were recorded at 600 MHz on a Bruker Avance spectrometer (Bruker BioSpin GmbH, Rheinstetten, Germany) running Topspin 2.0 software and fitted with a cryoprobe and a 60-slot autosampler. Each ^1H NMR spectrum was acquired with 128 scans, a spectral width of 8,012.8 Hz, an acquisition time of 2.04 s, and a relaxation delay of 2.0 s. The “noesypr1d” presaturation sequence was used to suppress the residual water signal with a low-power selective irradiation at the water frequency during the recycle delay and a mixing time of 100 ms. Spectra were transformed with a 0.3-Hz line broadening, manually phased, baseline corrected, and referenced by setting the TSP methyl signal to 0 ppm.

[7] = substrate: CC(=O)N[C@H]1[C@H]([C@H](O)[C@H](O)CO)O[C@@](Oc2ccc3c(C)cc(=O)oc3c2)(C(=O)O)C[C@@H]1O; assay: purified protein, by the assay type; settings: other: 37° C., pH 6.5, * estimated value, ± standard error of the mean
Experimental: as §1

[8] = * estimated value, ± standard error of the mean

With CO[C@@H]1O[C@H](CO)[C@@H](O[C@@H]2O[C@H](CO)[C@H](O)[C@H](O[C@]3(C(=O)O)C[C@H](O)[C@@H](NC(C)=O)[C@H]([C@H](O)[C@H](O)CO)O3)[C@H]2O)[C@H](O[C@@H]2O[C@@H](C)[C@@H](O)[C@@H](O)[C@@H]2O)[C@H]1NC(C)=O [3′ sialyl Lewis X methyl glycoside, Neu5Ac-α-2-3-Gal-β-1-4-[Fuc-a-1-3]-GlcNAc-β-OMe] the “Activity, RgNanH” value [1] was “+” and the “Activity, AkmNan0625 and AkmNan1835” value [2] was “+”.

In the case of CC(=O)N[C@H]1[C@H]([C@H](O)[C@H](O)CO)O[C@@](O[C@H]2[C@@H](O)[C@@H](CO)O[C@@H](O[C@H]3[C@H](O[C@@H]4O[C@@H](C)[C@@H](O)[C@@H](O)[C@@H]4O)[C@@H](O)C(O)O[C@@H]3CO)[C@@H]2O)(C(=O)O)C[C@@H]1O (stereo partly drawn) [3′ sialyl-3-fucosyllactose, Neu5Ac-α-2-3-Gal-β1-4-[Fuc-α-1-3]-Glc], the “Activity, RgNanH” value [1] is reported as “+” and the “Activity, AkmNan0625 and AkmNan1835” value [2] is reported as “+”.

With CC(=O)NC1C(O)CC(OC2C(O)C(O)OC(CO)C2O)(C(=O)O)OC1C(O)C(O)CO (stereo not drawn) [3′ sialylgalactose, Neu5Ac-α-2-3-Gal] the “Activity, RgNanH” value [1] was “+” and the “Activity, AkmNan0625 and AkmNan1835” value [2] was “+”.

For CC(=O)N[C@H]1[C@H]([C@H](O)[C@H](O)CO)O[C@@](O[C@H]2[C@@H](O)[C@@H](CO)O[C@@H](O[C@H]3[C@H](O[C@@H]4O[C@@H](C)[C@@H](O)[C@@H](O)[C@@H]4O)[C@@H](NC(C)=O)C(O)O[C@@H]3CO)[C@@H]2O)(C(=O)O)C[C@@H]1O (stereo partly drawn) [3′-sialyl Lewis X, Neu5Ac-α-2-3-Gal-β-1-4-[Fuc-a1-3]-GlcNAc], the “Activity, RgNanH” value [1] was “+” and the “Activity, AkmNan0625 and AkmNan1835” value [2] was “+”.

In the case of CC(=O)N[C@H]1[C@H]([C@H](O)[C@H](O)CO)O[C@@](O[C@H]2[C@@H](O)[C@@H](CO)O[C@@H](O[C@H]3[C@H](O)[C@@H](O)C(O)O[C@@H]3CO)[C@@H]2O)(C(=O)O)C[C@@H]1O (stereo partly drawn) [3′SL, Neu5Ac-α-2-3-Gal-β-1-4-Glc], the “Activity, RgNanH” value [1] is reported as “+”, the “Activity of AkmNan0625 and AkmNan1835 on substrate (in words)” value [2] is reported as “active” and the “Activity, AkmNan0625 and AkmNan1835” value [2] is reported as “+”. The KM [3] was “below detection limit”, the Km [3] was less than 100 µM and the Vmax [3] was 0.0566 ± 0.0057 µM/min. The kcat [3] was 25.7 min⁻¹ and 25.70 min⁻¹, the Ki [3] was 760 µM and the KM [4, 8] was “below detection limit”. The Km [4, 8] was less than 100 µM and the kcat/KM ([4]; ** calculated using estimated value) was >>2.57 × 10^2** min^−1 · mM^−1.

CC(=O)N[C@H]1[C@H]([C@H](O)[C@H](O)CO)O[C@@](Oc2ccc3c(C)cc(=O)oc3c2)(C(=O)O)C[C@@H]1O [4MU-Neu5Ac, 2′-(4-Methylumbelliferyl)-α-D-N-acetylneuraminic acid] gave a Km [3] of 590 µM, a kcat [3] of 6210 min⁻¹ and a Ki [3] of 2370 µM.

In the case of CC(=O)N[C@H]1[C@H]([C@H](O)[C@H](O)CO)OC(OC[C@H]2OC(O)[C@H](O)[C@@H](O)[C@H]2O)(C(=O)O)C[C@@H]1O (stereo partly drawn) [6′ sialylgalactose, Neu5Ac-α-2-6-Gal], the “Activity, AkmNan0625 and AkmNan1835” value [2] is reported as “+”.

OC[C@H]1O[C@@H](O[C@H]2[C@H](O)[C@@H](O)C(O)O[C@@H]2CO)[C@H](O)[C@@H](O)[C@H]1O (some centres unmarked) [Lactose] was tested, and the “Inhibition of RgNanH (in words)” value [5] was “not inhibited”.

In the case of CC(=O)NC1C(O)C=C(C(=O)O)OC1C(O)C(O)CO [Neu5Ac2en, 2-deoxy-2,3-didehydro-D-N-acetylneuraminic acid], the IC50 ([5]; IC50, Table 2, substrate 4MU-Neu5Ac 0.51 mM, RgNanH 1.00 nM) is reported as 1410 µM and the IC50 ([5]; IC50, substrate 4MU-Neu5Ac) is reported as 1400 µM.

For CC(=O)N[C@H]1[C@H]([C@H](O)[C@H](O)CO)OC(O)(C(=O)O)C[C@@H]1O (some centres unmarked) [Neu5Ac, N-Acetylneuraminic acid], the “Inhibition of RgNanH (in words)” value [5] was “not inhibited”.

CC(=O)NC1C(O)CC(Oc2ccc([N+](=O)[O-])cc2)(C(=O)O)OC1C(O)C(O)CO [PNP-Neu5Ac, 2-O-(p-Nitrophenyl)-α-D-N-acetylneuraminic acid] was tested, and the KM [3] was “high”, the Km [3] was greater than 25000 µM and the kcat [3] was <152** min^−1.

With CC(=O)N[C@H]1[C@H]([C@H](O)[C@H](O)CO)O[C@@](Oc2ccc([N+](=O)[O-])cc2)(C(=O)O)C[C@@H]1O [PNP-Neu5Ac, 2-O-(p-Nitrophenyl)-α-D-N-acetylneuraminic acid] the KM [4, 8] was “high KM”.

CC(=O)N[C@H]1NC[C@H](C(=O)O)[C@H](O)[C@@H]1O [Siastatin B] showed an IC50 ([5]; Table 2, substrate 4MU-Neu5Ac 0.51 mM, RgNanH 1.00 nM) of 4.87 µM.

For CC(=O)N[C@H]1[C@H]([C@H](O)[C@H](O)CO)OC(C(=O)O)=C[C@@H]1N=C(N)N [Zanamivir, 4-guanidino-Neu5Ac2en], the IC50 ([5]; substrate 4MU-Neu5Ac) was 11900 µM.

In the case of “Neu5Ac-α-2-3-Gal-β-1-4-GlcNAc [3′-α-sialyl-N-acetyllactosamine]”, the “Activity, RgNanH” value [1] is reported as “+” and the “Activity, AkmNan0625 and AkmNan1835” value [2] is reported as “+”.

In the case of Neu5Ac-α-2-6-Gal-β1-4-Glc [6′SL], the “Enzymatic activity of RgNanH on substrate (in words)” value [1] is reported as “no enzymatic activity”, the “Activity of AkmNan0625 and AkmNan1835 on substrate (in words)” value [2] is reported as “active” and the “Activity, AkmNan0625 and AkmNan1835” value [2] is reported as “+”.

With “Neu5Ac-α-2-6-Gal-β-1-4-GlcNAc [6′-α-sialyl-N-acetyllactosamine]” the “Activity, AkmNan0625 and AkmNan1835” value [2] was “+”.

asialo-fetuin was tested, and the “Activity of RgNanH against glycoprotein (2,7-anhydro-Neu5Ac peaks by 1H NMR)” value [6] was “no change”.

B1: Ruminococcus gnavus ATCC 29149 sialidase RgNanH (intramolecular trans-sialidase, IT-sialidase), wild type, full length excluding signal sequence residues 1-25, … (protein)
chain: QEAQTDVIEAVAEKKQDTESSSVPVLQKEGIEISEGTGYDLSKEPGAATVKALEQGTIVISYKTTSENAIQSLLSVGNGTKGNQDRHFHLYITNAGGVGMELRNTDGEFKYTLDCPAAVRGSYKGERVSNTVALKADKENKQYKLFANGELIATLDQEAFKFISDITGVDNVMLGGTMRQGTVAYPFGGSIERMQVYRDVLSDDELIAVTGKTIYAENIFYAGDATKSNYFRIPSLLALDSGTVIAAADARYGGTHDAKSKINTAFAKSTDGGKTWGQPTLPLKFDDYVAKNIDWPRDSVGKNVQIQGSASYIDPVLLEDKETHRVFLFADMMPAGIGSSNASVGSGFKEVDGKKYLKLHWKDDAAGTYDYSVRENGTIYNDTTNSATEYSVDGEYNLYKNGNAMLCKQYDYNFEGTKLLETQTDTDVNMNVFYKDADFKVFPTTYLAMKYSDDEGETWSDLQIVSTFKPEESKFLVLGPGVGKQIANGEHAGRLIVPLYSKSSAELGFMYSDDHGNNWTYVEADQNTGGATAEAQIVEMPDGSLKTYLRTGSGYIAQVMSTDGGETWSERVPLTEIATTGYGTQLSVINYSQPVDGKPAILLSAPNATNGRKNGKIWIGLISETGNSGKDKYSVDWKYCYSVDTPQMGYSYSCLTELPDGEIGLLYEKYDSWSRNELHLKNILKYERFNIDELKVQP
B1 showed a Km [7] of 590 ± 170 µM, a Vmax [7] of 1.37 µM/min and a kcat [7] of 104 s⁻¹. The kcat/Km [7] was 175000 M⁻¹ s⁻¹.
